Assay results published in ChEMBL document CHEMBL1201862, “PubChem BioAssay data set” (2004).
Activity calls are given as the source filed them.

Legend:
[1] = target: Lysosomal acid glucosylceramidase (Homo sapiens, UniProt P04062); test: Dose response cell-based high throughput screening assay to identify enhancers of beta-glucosidase activity. [Related pubchem assays: 784 ]; assay type: functional
Insulin-degrading enzyme = target: T1, Insulin-degrading enzyme (Homo sapiens, UniProt P14735); test: Dose Response: Fluorescence polarization-based cell-based high throughput dose response assay for inhibitors of insulin-degrading enzyme (IDE). [Related pubchem assays: 434962 (Primary screen (IDE inhibitors in singlicate)), 449730 (Counterscreen (Cytotoxicity in triplicate)), 435028 (Confirmation (IDE inhibitors in triplicate)), 434984 (Summary …; assay type: functional
T1 sequence (P14735 whole entry): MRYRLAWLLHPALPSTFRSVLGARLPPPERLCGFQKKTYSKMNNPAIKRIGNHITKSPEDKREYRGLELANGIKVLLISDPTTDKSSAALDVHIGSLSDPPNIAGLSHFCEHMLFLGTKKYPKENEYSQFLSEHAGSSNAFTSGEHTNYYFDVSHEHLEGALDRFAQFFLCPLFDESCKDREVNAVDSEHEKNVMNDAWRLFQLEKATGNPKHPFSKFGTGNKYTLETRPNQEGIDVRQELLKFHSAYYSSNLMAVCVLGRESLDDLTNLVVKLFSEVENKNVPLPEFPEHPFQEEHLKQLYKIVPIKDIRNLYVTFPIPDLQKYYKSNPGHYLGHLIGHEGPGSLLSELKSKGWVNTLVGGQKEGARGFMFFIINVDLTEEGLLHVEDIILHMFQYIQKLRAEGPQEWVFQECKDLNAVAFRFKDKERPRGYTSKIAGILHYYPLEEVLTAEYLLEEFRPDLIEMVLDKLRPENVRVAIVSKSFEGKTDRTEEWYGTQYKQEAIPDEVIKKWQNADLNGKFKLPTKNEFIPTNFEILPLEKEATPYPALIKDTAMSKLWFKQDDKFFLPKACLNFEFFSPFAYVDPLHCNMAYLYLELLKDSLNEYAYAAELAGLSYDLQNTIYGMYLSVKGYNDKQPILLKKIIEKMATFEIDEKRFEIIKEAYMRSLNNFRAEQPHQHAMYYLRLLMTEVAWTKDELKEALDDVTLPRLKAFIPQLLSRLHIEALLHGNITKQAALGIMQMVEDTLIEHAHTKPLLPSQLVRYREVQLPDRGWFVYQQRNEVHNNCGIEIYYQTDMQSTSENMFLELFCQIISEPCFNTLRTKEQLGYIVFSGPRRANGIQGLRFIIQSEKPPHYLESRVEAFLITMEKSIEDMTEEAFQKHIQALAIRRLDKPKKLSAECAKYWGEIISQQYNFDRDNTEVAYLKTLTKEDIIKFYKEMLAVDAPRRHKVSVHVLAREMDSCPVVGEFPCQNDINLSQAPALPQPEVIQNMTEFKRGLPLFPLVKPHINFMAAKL

[2] = target: T2, Corticotropin-releasing factor receptor 2/Corticotropin-releasing factor-binding protein (Homo sapiens, UniProt P24387+Q13324); test: activators of CRF receptor 2 with binding protein – uHTS hits, confirmation (AID 602473); assay type: functional; settings: read-out: EC50_Mean
T2 sequence (Q13324 whole entry): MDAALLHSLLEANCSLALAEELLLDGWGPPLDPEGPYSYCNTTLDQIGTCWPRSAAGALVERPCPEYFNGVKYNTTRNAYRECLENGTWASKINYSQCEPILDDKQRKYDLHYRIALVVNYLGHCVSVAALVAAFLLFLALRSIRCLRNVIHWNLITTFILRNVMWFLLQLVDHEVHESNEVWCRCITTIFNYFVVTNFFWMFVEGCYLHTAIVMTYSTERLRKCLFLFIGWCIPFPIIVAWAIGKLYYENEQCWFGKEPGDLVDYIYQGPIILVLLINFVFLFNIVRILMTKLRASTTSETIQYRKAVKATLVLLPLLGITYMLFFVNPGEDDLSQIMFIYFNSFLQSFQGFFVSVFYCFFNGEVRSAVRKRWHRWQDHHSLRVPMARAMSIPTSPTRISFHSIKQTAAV
T2 sequence (P24387 whole entry): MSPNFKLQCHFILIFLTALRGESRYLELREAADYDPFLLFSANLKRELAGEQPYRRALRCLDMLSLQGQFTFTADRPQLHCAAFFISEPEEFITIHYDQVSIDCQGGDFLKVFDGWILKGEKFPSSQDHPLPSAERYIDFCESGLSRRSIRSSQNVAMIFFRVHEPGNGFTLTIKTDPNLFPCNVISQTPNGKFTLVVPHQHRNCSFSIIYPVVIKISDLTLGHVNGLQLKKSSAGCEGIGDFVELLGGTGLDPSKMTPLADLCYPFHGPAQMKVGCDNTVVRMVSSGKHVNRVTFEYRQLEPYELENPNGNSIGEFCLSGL

[3] = Counterscreen for IDE inhibitors: Luminescence-based cell-based high throughput dose response assay to identify compounds that are cytotoxic to HEK cells. [Related pubchem assays: 434962 (Primary screen (IDE inhibitors in singlicate)), 449730 (Counterscreen (Cytotoxicity in triplicate)), 435028 (Confirmation (IDE inhibitors in triplicate)) …; assay type: functional; settings: HEK293
[4] = tested on: Streptococcus sp. 'group A'; test: growth inhibition of control SK(-) GAS strain, dose response, counter-screen for streptokinase expression inhibitor project, luminescence, kanamycin, BacTiterGlo, confirmation (AID 1900); assay type: functional, organism-based
[5] = target: T3, Neuropeptide Y receptor type 1 (Homo sapiens, UniProt P25929); test: NPY-Y1 receptor antagonist potency, dose response, cell-based (AID 1277); assay type: functional
T3 sequence (P25929 whole entry): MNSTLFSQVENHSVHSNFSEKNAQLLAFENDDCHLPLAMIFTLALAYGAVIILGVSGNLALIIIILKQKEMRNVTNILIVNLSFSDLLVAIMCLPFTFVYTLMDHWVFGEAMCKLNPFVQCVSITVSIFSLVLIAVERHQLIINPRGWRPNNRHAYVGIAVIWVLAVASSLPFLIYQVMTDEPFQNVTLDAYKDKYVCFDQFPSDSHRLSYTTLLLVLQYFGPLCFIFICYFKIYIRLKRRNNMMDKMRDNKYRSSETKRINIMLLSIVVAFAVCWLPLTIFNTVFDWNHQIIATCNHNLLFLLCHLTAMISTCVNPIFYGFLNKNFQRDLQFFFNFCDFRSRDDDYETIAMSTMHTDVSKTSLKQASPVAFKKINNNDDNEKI

Streptococcus = test: Group A Streptococcus viability loss, dose response, counter-screen for streptokinase expression inhibitor project, luminescence, BacTiterGlo (AID 1915); assay type: functional, organism-based;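 further: potency for reduction of bacterial viability or growth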
Streptokinase A = target: T4, Streptokinase A (Streptococcus pyogenes serotype M1, UniProt P10520); test: S. pyogenes streptokinase expression inhibitors, potency, dose response, plasminogen activation absorbance, OD405 (AID 1914); assay type: functional, Streptococcus pyogenes M1 GAS;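 further: secreted streptokinase activity via plasminogen activation per viability signal from cell pellet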
T4 sequence (P10520 whole entry): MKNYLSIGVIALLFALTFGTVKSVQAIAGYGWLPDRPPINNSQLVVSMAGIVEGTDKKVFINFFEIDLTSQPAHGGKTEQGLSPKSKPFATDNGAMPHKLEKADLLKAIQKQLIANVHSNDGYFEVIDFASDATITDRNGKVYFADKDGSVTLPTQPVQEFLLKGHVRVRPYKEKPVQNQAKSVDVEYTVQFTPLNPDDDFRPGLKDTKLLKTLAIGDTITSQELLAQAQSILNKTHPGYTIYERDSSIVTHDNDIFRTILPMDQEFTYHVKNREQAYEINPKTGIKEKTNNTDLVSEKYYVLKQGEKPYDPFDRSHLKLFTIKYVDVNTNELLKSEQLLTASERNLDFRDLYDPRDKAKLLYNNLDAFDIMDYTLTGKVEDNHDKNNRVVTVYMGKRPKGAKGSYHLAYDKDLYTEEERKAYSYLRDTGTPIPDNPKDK

[6] = target: T5, Neuropeptide Y receptor type 2 (Homo sapiens, UniProt P49146); test: NPY-Y2 antagonist potency, selectivity check, dose response, counter-screen for NPY-Y1 antagonist project, cell-based (AID 1278); assay type: functional
T5 sequence (P49146 whole entry): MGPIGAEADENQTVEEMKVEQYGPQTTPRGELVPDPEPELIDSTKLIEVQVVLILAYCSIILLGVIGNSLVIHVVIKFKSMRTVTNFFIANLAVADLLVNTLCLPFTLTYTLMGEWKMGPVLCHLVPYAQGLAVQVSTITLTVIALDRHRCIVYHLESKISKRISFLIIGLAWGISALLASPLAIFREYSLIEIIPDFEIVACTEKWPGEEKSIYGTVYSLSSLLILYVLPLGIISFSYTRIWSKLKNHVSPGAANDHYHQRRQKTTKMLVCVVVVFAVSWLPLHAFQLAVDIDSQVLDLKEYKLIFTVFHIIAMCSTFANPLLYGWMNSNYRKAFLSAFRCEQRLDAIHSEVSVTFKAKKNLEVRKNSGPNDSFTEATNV

[7] = HIV-1 Env-mediated cell fusion inhibitors, dose response, CCR5-tropic Env (AID 2279); assay type: functional
[8] = HEp-2 cell cytotoxicity, dose response, cytotoxicity control for RSV inhibitor project, HTS (AID 2410); assay type: functional; settings: human respiratory syncytial virus
[9] = target: FAD-linked sulfhydryl oxidase ALR (Homo sapiens, UniProt P55789); test: inhibitors of human ALR sulfhydryl oxidase, dose response, biochemical, H2O2 detection, luminescence, cherry-pick (AID 493248)
[10] = target: T6, Long-chain-fatty-acid--AMP ligase FadD28 (Mycobacterium tuberculosis, UniProt P9WQ59); test: Fluorescence polarization aasay to screen for inhibitors that compete for the binding of FadD28 to a bisubstrate Measured in Biochemical System Using Plate Reader - 2147-01_Inhibitor_Dose_CherryPick_Activity.; assay type: functional, Mycobacterium tuberculosis H37Rv
T6 sequence (P9WQ59 whole entry): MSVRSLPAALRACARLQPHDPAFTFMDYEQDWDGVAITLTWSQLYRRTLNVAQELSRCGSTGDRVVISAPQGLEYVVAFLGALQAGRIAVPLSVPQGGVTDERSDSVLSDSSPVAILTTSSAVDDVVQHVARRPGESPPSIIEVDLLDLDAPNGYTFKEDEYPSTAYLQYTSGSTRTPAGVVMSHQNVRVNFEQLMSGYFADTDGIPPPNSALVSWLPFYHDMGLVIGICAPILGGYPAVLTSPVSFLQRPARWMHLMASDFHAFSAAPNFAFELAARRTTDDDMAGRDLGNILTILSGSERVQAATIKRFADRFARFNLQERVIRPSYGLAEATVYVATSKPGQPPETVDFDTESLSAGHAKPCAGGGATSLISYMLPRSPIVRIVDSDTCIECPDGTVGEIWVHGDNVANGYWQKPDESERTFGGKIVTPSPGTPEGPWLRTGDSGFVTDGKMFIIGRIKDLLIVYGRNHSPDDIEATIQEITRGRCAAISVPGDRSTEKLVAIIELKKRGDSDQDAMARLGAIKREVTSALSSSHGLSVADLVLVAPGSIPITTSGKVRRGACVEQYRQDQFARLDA

Genome polyprotein = Genome polyprotein (dengue virus type 2, UniProt P29990); test: Dengue-2 NS5 methyltransferase inhibitors, primary screen, biochemical, confirmation dose response (AID 588689); assay type: functional
Cytochrome P450 2D6 = Cytochrome P450 2D6 (Homo sapiens, UniProt P10635); test: qHTS Assay for Inhibitors and Substrates of Cytochrome P450 2D6. [Related pubchem assays: 410 ]; assay type: ADME; settings: read-out: Potency
Cytochrome P450 2D6, sequence (P10635 whole entry): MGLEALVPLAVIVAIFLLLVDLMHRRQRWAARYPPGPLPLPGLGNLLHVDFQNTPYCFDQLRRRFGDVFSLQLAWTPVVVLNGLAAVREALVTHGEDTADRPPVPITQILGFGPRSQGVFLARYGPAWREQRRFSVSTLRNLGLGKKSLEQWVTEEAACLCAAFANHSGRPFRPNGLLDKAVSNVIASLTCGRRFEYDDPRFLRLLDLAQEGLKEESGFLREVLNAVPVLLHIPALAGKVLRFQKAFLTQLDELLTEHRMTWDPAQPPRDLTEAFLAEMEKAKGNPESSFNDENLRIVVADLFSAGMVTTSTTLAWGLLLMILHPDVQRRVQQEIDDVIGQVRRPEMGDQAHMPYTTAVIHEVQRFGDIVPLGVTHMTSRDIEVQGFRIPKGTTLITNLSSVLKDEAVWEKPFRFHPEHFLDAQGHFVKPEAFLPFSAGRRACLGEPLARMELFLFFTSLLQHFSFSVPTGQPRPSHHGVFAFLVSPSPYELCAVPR

FAD-linked sulfhydryl oxidase ALR, sequence (P55789 whole entry): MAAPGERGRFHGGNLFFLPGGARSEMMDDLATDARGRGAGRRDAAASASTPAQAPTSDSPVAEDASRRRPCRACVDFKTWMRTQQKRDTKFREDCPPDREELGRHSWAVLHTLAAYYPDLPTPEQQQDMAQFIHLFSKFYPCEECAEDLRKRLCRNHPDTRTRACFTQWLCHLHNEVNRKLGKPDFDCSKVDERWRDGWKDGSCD
Lysosomal acid glucosylceramidase, sequence (P04062 whole entry): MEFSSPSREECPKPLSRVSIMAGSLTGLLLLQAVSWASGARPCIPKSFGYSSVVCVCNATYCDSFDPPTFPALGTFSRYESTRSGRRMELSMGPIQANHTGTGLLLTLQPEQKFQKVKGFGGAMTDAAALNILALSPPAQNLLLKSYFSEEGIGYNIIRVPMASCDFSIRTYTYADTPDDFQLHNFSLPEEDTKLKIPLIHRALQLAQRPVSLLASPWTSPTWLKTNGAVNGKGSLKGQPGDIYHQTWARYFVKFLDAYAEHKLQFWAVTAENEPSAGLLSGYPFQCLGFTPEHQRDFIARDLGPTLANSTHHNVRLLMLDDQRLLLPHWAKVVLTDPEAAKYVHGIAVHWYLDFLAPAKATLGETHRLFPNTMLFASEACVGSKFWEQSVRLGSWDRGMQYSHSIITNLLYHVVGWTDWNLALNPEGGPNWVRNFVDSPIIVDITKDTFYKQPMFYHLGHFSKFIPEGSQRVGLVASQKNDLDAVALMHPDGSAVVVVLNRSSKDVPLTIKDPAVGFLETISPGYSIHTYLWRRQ
Genome polyprotein, sequence (P29990 2492-3391 limits assumed): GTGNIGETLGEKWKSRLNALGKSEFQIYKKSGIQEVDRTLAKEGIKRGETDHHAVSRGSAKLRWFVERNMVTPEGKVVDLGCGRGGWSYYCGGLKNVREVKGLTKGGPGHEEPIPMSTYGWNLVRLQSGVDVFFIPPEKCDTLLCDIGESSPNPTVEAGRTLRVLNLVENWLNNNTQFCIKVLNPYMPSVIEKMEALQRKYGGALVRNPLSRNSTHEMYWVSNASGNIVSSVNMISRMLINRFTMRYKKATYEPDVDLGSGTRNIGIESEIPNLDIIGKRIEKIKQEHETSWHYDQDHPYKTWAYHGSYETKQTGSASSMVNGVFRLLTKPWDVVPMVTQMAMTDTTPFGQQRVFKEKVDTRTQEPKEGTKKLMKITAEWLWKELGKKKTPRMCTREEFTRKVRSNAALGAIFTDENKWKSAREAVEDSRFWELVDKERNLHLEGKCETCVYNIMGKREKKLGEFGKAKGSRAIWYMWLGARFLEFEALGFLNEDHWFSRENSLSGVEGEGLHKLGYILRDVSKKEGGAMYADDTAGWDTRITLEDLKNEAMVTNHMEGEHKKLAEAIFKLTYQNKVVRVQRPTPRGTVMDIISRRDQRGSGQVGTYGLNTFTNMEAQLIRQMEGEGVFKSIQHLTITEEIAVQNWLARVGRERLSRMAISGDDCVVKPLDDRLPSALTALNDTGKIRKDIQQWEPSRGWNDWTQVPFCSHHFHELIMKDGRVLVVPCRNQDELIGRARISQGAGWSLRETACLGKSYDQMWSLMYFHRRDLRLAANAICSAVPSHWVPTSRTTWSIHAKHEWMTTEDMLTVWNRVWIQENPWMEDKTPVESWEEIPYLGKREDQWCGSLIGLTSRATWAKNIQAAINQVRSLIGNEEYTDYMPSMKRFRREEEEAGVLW

CC(CS(=O)(=O)c1cccc2cccnc12)N1CCCCC1 (stereo not given)
EC50 [1]: > 50 µM (not active)

CCN1/C(=C\C=C(C(C)=O)C(C)=O)Sc2ccccc21
IC50 (Insulin-degrading enzyme): 8.83 µM (active)
EC50 [2]: 4.9 µM (active)
IC50 [3]: 33.9 µM (not active)

COc1ccc(C(=O)/C(C#N)=N/Nc2cccc([N+](=O)[O-])c2)cc1
EC50 [4]: 22.8 µM (active)
IC50 [5]: > 35 µM (not active)
EC50 (Streptococcus): 94.3 µM (active)
EC50 (Streptokinase A): > 150 µM (not active)
IC50 [6]: > 35 µM (not active)

O=C(O)c1cc(N/N=C/c2ccc(-c3ccccc3)cc2)ccc1Cl
IC50 [7]: 11 µM (active)
CC50 [8]: 31.1 µM (active)
AC50 [9]: 1.83 µM (active)
AC50 [10]: 18.4 µM (active)
IC50 (Genome polyprotein): 61.5 µM (active)

COc1ccc([C@@H]2CC(=O)c3c(O)cc(O)cc3O2)cc1O [HESPERETIN]
AC50 (Cytochrome P450 2D6): 39.8 µM (inconclusive)
